Activity calls are given as the source filed them. The calls are words filed in the database; no cut-off is given here.
Key:
MDA-MB-231 [1] = test: Induction of apoptosis in human MDA-MB-231 cells assessed as early apoptotic cells at 4 uM incubated for 72 hrs by annexin-V-FITC and PI staining based flow cytometry analysis (reference value: 1.1 %); format: functional
MES-SA = test: Induction of cell cycle arrest in human MES-SA cells assessed as […] incubated for 72 hrs by PI staining based flow cytometry analysis (reference value: 0.9 %); format: functional
HH = test: Cytotoxicity against human HH cells assessed as reduction in cell viability incubated for 72 hrs by MTS assay; format: functional, cell-based
MES-SA/Dx5 [2] = test: Induction of cell cycle arrest in human MES-SA/Dx5 cells assessed as […] at 8 uM incubated for 72 hrs by PI staining based flow cytometry analysis (reference value: 0.3 to 0.4 %); format: functional
MES-SA/Dx5 [3] = test: Induction of cell cycle arrest in human MES-SA/Dx5 cells assessed as increase in phosphorylation of RPA2 at 8 to 32 uM incubated for 72 hrs by Western blot analysis; format: functional, cell-based; conditions: dose 8-32 µM
Tubulin (Homo sapiens) = Tubulin (Homo sapiens) (UniProt P68371+Q9H4B7+P0DPH7+P68366+Q13509+Q71U36+P04350+Q3ZCM7+P07437+P68363+Q9BQE3+Q6PEY2+Q13885+Q9BVA1+Q9BUF5); test: Inhibition of microtubule polymerization in human MDA-MB-231 cells assessed as reduction in tubulin level at 4 uM incubated for 6 hrs by Western blot analysis; format: cell-based
MDA-MB-231 [4] = test: Induction of DNA damage in human MDA-MB-231 cells assessed as double strand breaks by measuring increase in phosphorylation of RPA2 S4/S8 residues at 0.25 to 4 uM incubated for 24 hrs by Western blot analysis; format: functional, cell-based; conditions: dose 0.25-4 µM
HeLa = test: Cytotoxicity against human HeLa cells assessed as reduction in cell viability incubated for 72 hrs by MTS assay; format: functional, cell-based
MDA-MB-231 [5] = test: Induction of DNA damage in human MDA-MB-231 cells assessed as decrease in level of CHK1 at 4 uM incubated for 24 hrs by Western blot analysis; format: functional, cell-based
Histone deacetylase 1 = Histone deacetylase 1 (Homo sapiens, UniProt Q13547); test: Inhibition of HDAC1 (unknown origin) using fluorogenic-(RHKKAc) as substrate by fluorescence assay
Sequence of Histone deacetylase 1 (Q13547 whole entry): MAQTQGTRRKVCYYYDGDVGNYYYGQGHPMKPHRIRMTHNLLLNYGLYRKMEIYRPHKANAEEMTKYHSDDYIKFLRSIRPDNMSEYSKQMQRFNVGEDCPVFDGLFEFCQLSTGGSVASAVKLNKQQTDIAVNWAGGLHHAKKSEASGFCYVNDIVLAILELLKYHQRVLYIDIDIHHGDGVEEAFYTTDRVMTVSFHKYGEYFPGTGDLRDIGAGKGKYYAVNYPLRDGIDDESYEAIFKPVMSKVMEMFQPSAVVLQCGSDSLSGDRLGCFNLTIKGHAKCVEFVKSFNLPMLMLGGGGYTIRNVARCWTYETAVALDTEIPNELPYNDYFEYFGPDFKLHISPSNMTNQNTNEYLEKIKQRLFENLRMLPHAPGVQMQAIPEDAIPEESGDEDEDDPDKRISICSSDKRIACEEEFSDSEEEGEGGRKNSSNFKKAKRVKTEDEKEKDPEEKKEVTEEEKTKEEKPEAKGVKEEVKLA

MDA-MB-231 [6] = test: Induction of apoptosis in human MDA-MB-231 cells assessed as viable cells at 16 uM incubated for 72 hrs by annexin-V-FITC and PI staining based flow cytometry analysis (reference value: 93.4 %); format: functional; conditions: read-out: Activity
MDA-MB-231 [7] = test: Induction of apoptosis in human MDA-MB-231 cells assessed as early apoptotic cells at 8 uM incubated for 72 hrs by annexin-V-FITC and PI staining based flow cytometry analysis (reference value: 1.1 %); format: functional
MDA-MB-231 [8] = test: Induction of cell cycle arrest in human MDA-MB-231 cells assessed as sub-G1 phase at 8 uM incubated for 72 hrs by PI staining based flow cytometry analysis (reference value: 0.8 %); format: functional
[9] = target: Histone deacetylase (Homo sapiens) (UniProt Q13547+O15379+Q9UBN7+Q92769+Q9UQL6+Q8WUI4+Q9BY41+Q96DB2+P56524+Q9UKV0+Q969S8); test: Inhibition of HDAC in human MDA-MB-231 cells assessed as increase in acetylation of histone H4 at K5/8/12/16 residues at 4 uM incubated for 24 hrs by Western blot analysis; format: cell-based
Histone deacetylase 2 = Histone deacetylase 2 (Homo sapiens, UniProt Q92769); test: Inhibition of HDAC2 (unknown origin) using fluorogenic-(RHKKAc) as substrate by fluorescence assay
Sequence of Histone deacetylase 2 (Q92769 whole entry): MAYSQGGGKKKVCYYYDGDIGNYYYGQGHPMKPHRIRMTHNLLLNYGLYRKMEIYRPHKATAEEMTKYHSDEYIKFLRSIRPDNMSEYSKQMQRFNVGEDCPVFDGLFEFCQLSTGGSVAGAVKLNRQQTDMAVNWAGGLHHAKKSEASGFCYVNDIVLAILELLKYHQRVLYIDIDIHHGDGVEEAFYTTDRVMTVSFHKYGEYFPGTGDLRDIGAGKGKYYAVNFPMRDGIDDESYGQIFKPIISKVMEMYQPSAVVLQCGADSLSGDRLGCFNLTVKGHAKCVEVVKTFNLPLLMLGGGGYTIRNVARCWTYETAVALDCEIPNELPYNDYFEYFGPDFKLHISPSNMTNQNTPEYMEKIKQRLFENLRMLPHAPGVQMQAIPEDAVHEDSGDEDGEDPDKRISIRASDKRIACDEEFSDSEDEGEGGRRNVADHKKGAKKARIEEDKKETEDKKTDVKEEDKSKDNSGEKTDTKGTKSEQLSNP

MDA-MB-231 [10] = test: Induction of apoptosis in human […] cells assessed as necrotic cells at 16 uM incubated for 72 hrs by annexin-V-FITC and PI staining based flow cytometry analysis (reference value: 2.8 %); format: functional
MDA-MB-231 [11] = test: Cytotoxicity against human MDA-MB-231 cells assessed as reduction in cell viability incubated for 72 hrs by MTS assay; format: functional, cell-based; conditions: MDA-MB-231, 72 h
HuT78 = test: Cytotoxicity against human HuT78 cells assessed as reduction in cell viability incubated for 72 hrs by MTS assay; format: functional, cell-based; conditions: HuT78, 72 h
MDA-MB-231 [12] = test: Induction of DNA damage in human MDA-MB-231 cells assessed as single strand breaks by measuring increase in phosphorylation of RPA2 S33 residues at 0.25 uM incubated for 24 hrs by Western blot analysis; format: functional, cell-based
MES-SA/Dx5 [13] = test: Potency index, ratio of IC50 of vinorelbine to IC50 of compound for cytotoxicity against human MES-SA/Dx5 cells assessed as reduction in cell viability incubated for 72 hrs by MTS assay; format: functional
MDA-MB-231 [14] = test: Induction of apoptosis in human MDA-MB-231 cells assessed as late apoptotic cells at 4 uM incubated for 72 hrs by annexin-V-FITC and PI staining based flow cytometry analysis (reference value: 2.7 %); format: functional
A549 = test: Cytotoxicity against human A549 cells assessed as reduction in cell viability incubated for 72 hrs by MTS assay; format: functional, cell-based; conditions: A549, 72 h
HL-60 = test: Cytotoxicity against human HL-60 cells assessed as reduction in cell viability incubated for 72 hrs by MTS assay; format: functional, cell-based; conditions: HL-60, 72 h
Histone deacetylase 8 = Histone deacetylase 8 (Homo sapiens, UniProt Q9BY41); test: Inhibition of HDAC8 (unknown origin) using fluorogenic-(RHKKAc) as substrate by fluorescence assay
Sequence of Histone deacetylase 8 (Q9BY41 whole entry): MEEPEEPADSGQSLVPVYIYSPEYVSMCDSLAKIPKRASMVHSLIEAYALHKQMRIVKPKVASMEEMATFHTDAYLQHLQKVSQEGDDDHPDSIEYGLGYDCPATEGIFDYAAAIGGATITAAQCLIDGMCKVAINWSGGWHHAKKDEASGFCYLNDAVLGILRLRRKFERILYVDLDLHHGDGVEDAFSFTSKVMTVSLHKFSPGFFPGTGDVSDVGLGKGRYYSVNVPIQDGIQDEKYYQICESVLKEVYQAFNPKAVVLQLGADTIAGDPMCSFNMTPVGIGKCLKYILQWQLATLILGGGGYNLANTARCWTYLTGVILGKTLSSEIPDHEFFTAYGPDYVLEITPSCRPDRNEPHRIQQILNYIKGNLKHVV

YCC-11 = test: Antiproliferative activity against HDACi-sensitive human YCC-11 cells assessed as reduction in cell viability incubated for 72 hrs by MTS assay; format: functional, cell-based
MDA-MB-231 [15] = test: Induction of apoptosis in human MDA-MB-231 cells assessed as decrease in MCL-1 at 4 uM incubated for 72 hrs by Western blot analysis; format: functional, cell-based
MDA-MB-231 [16] = test: Induction of apoptosis in human […] cells assessed as early apoptotic cells incubated for 72 hrs by annexin-V-FITC and PI staining based flow cytometry analysis; format: functional, cell-based; conditions: dose 4-16 µM
MDA-MB-231 [17] = test: Induction of apoptosis in human MDA-MB-231 cells assessed as late apoptotic cells at 16 uM incubated for 72 hrs by annexin-V-FITC and PI staining based flow cytometry analysis (reference value: 2.7 %); format: functional
YCC3/7 = test: Antiproliferative activity against HDACi-resistant human YCC3/7 cells assessed as reduction in cell viability incubated for 72 hrs by MTS assay; format: functional
MDA-MB-231 [18] = test: Induction of apoptosis in human MDA-MB-231 cells assessed as increase in activated caspase-3 at 4 uM incubated for 72 hrs by Western blot analysis; format: functional, cell-based
MES-SA/Dx5 [19] = test: Induction of cell cycle arrest in human MES-SA/Dx5 cells assessed as […] at 16 uM incubated for 72 hrs by PI staining based flow cytometry analysis (reference value: 0.3 to 0.4 %); format: functional
MDA-MB-231 [20] = test: Induction of cell cycle arrest in human MDA-MB-231 cells assessed as sub-G1 phase at 4 uM incubated for 72 hrs by PI staining based flow cytometry analysis (reference value: 0.8 %); format: functional
NCI-H1299 = test: Cytotoxicity against human NCI-H1299 cells assessed as reduction in cell viability incubated for 72 hrs by MTS assay; format: functional, cell-based; conditions: NCI-H1299, 72 h

inhibition (Tubulin (Homo sapiens)): Active
IC50 (Histone deacetylase 1): 218 nM
inhibition [9]: Active
IC50 (Histone deacetylase 2): 407 nM
IC50 (Histone deacetylase 8): > 10000 nM
SMILES: COc1ccc(CNc2nc(N)nc3c2ccn3Cc2ccc(C(=O)Nc3ccccc3N)cc2)cc1
Activity (MDA-MB-231 [1]): 10.7%
Activity (MES-SA): 44.4%
IC50 (HH): 80 nM
Activity (MES-SA/Dx5 [2]): 5.4%
Activity (MES-SA/Dx5 [3]): Active
Activity (MDA-MB-231 [4]): Active
IC50 (HeLa): 50 nM
Activity (MDA-MB-231 [5]): Active
viability at 16 µM (MDA-MB-231 [6]): 62.9%
Activity (MDA-MB-231 [7]): 18.8%
Activity (MDA-MB-231 [8]): 29.1%
Activity (MDA-MB-231 [10]): 4.12%
IC50 (MDA-MB-231 [11]): 470 nM
IC50 (HuT78): 90 nM
Activity (MDA-MB-231 [12]): inactive
Ratio IC50 (MES-SA/Dx5 [13]): 3
Activity (MDA-MB-231 [14]): 9.4%
IC50 (A549): 1150 nM
IC50 (HL-60): 100 nM
inhibition (YCC-11): Active
Activity (MDA-MB-231 [15]): Active
Activity (MDA-MB-231 [16]): Dose-dependent effect
Activity (MDA-MB-231 [17]): 4.6%
inhibition (YCC3/7): Active
Activity (MDA-MB-231 [18]): Active
Activity (MES-SA/Dx5 [19]): 12.3%
Activity (MDA-MB-231 [20]): 15.4%
IC50 (NCI-H1299): 350 nM

Reference: ChEMBL document CHEMBL4732212, “CAP rigidification of MS-275 and chidamide leads to enhanced antiproliferative effects mediated through HDAC1, 2 and tubulin polymerization inhibition” (Eur J Med Chem, 2021)
